Results from patent US4145253A, “Process for producing fortimicin factors” (Abbott Laboratories, priority 1976, dated 1979).
Values after ≈ are worked out from the molar mass of the structure shown. “Also recorded” adds a separate entry of the source. Where a name gives a salt, the structure may show the parent alone. Read-outs that look alike come from different tables or passages of the source.

What was measured:
LD50 for dd-mouse = details: in vivo; dd-mouse weighing 20 ± 1 g
From the text: Further, Fortimicin D is expected to have a therapeutic effect on various infections (in human beings and in animals) induced by the above-mentioned various bacteria. […] With such antibacterial properties, Fortimicin D is applicable to medicinal purposes.

[1] = test system: Bacillus subtilis No. 10707; assay: antibacterial activity of preparations (paper disc method); assay type: cell-based
Procedure: After the completion of fermentation, the culture liquor is adjusted to pH 2.5 with concentrated sulfuric acid and is stirred for 30 minutes. Thereafter, about 7 kg of a filter aid, Radiolite No. 600 (product of Showa Kagaku Kogyo Co., Ltd.) is added to the culture liquor and the microbial cells are removed by filtration. The filtrate is adjusted to pH 7.5 by the addition of 6N sodium hydroxide, and then passed through a column packed with about 20 l of a cation exchange resin, Amberlite IRC-50 (ammonium form). The active principles are adsorbed on the resin, and the effluent is discarded. After the resin is washed with water, elution of the active principles is carried out with 0.5N aqueous ammonia. The eluate is subjected to determination of activity by a paper disc method using an agar plate of Bacillus subtilis No. 10707. Fractions showing an activity are combined and concentrated under reduced pressure to about 1 L. The concentrate is then passed through a column packed with 500 ml of an anion exchange resin, Dowex 1 × 2 (OH form) and then about 2 L of water is passed through the column. In this manner, impurities are removed and the active principles are eluted with water. The active fractions are combined and concentrated under reduced pressure to about 100 ml. The concentrate is passed through a column packed with about 50 ml of active carbon powder whereby the active principles are adsorbed. The column is washed with water and the effluent and washings are discarded. Elution is carried out with 0.2N sulfuric acid. The eluate is subjected to determination of activity by a paper disc method using Bacillus subtilis No. 10707. The active fractions are combined and passed through a column of a resin, Dowex 44 (OH form) and elution of the active principles is carried out with water. The active fractions are combined and concentrated to about 50 ml. The concentrate is freeze-dried to obtain a crude powder of Fortimicin complex. The yield of the crude powder is about 35 g and the activity is 580 unit/mg (activity of 1 mg of the pure preparate corresponds to 1,000 units).
About 500 ml of silica gel is suspended in a solvent comprising isopropanol, chloroform, and concentrated aqueous ammonia (4:2:1 by volume) and packed in a glass column as a tight, uniform layer. Thereafter, the column is thoroughly washed with the same solvent. Then 10 g of the crude powder obtained in the above step B is charged over the silica gel to form a uniform, thin layer. After the crude powder is charged, the same solvent is poured gradually into the column from the top and thereafter elution is carried out continuously at a flow rate of about 50 ml/hour. The eluate is recovered in 20 ml fractions and each of the fractions is subjected to determination of activity by the paper disc method using Bacillus subtilis No. 10707. First, Fortimicin B is eluted followed by Fortimicin A. Then, the elution is continued and after Fortimicin C is eluted, Fortimicin D is eluted. The active fractions are subjected to thin layer chromatography and the fractions containing Fortimicin D are combined and concentrated under reduced pressure to sufficiently remove the solvent.
About 500 ml of silica gel, suspended in a solvent comprising isopropanol, chloroform, and concentrated aqueous ammonia (4:2:1 by volume) is packed in a glass column as a tight, uniform layer. Thereafter, the column is thoroughly washed with the same solvent. Then the crude powder obtained above is charged over the silica gel in a uniform thin layer and the same solvent is poured gradually into the column from the top and thereafter elution is carried out continuously at a flow rate of about 50 ml/hour. The eluate is recovered in 20 ml fractions and each of the fractions is subjected to determination of activity by the paper disc method using Bacillus subtilis No. 10707. First, Fortimicin B is eluted followed by Fortimicin KE. […]

[2] = solubility of the free base; assay type: physicochemical; details: for solubility in organic solvents: chloroform, benzene, ethyl acetate, butyl acetate, ethyl ether, butanol, petroleum ether, n-hexane, etc., ordinary organic solvents; for solubility in ethanol and acetone / solubility in methanol / solubility in water: free base
[3] = test system: Gram-positive and Gram-negative bacteria; assay: antibacterial spectrum, statement in words; assay type: cell-based
From the text: (§1) Table 4 illustrates the antibacterial spectra of Fortimicin D and Fortimicin KE against various microorganisms.
(§2) (Minimum Inhibitory Concentration, γ/ml
(§3) measured by agar dilution method at pH 8.0)

Escherichia coli ATCC 26 = assay: antibacterial spectrum, MIC by agar dilution method; assay type: cell-based
From the text: as §1, §2, §3

Escherichia coli KY 8327 = assay: as above; assay type: cell-based; details: for MIC: Escherichia coli
From the text: as §1, §2, §3

[4] = test system: Staphylococcus aureus ATCC 6538P; assay: as above; assay type: cell-based; details: ATCC6538P, pH 8.0, read-out: Minimum Inhibitory Concentration
From the text: as §1, §2, §3

[5] = test system: Pseudomonas aeruginosa KY 8510; assay: as above; assay type: cell-based; details: KY8510, pH 8.0, strain resistant to kanamycin, kanamycin B, tobramycin, gentamicin C1a and ribostamycin, read-out: Minimum Inhibitory Concentration
From the text: as §1, §2, §3

[6] = test system: Klebsiella pneumoniae ATCC 10031; assay: as above; assay type: cell-based
From the text: as §1, §2, §3

[7] = test system: Bacillus subtilis No. 10707; assay: as above; assay type: cell-based; details: pH 8.0, read-out: Minimum Inhibitory Concentration
From the text: as §1, §2, §3

[8] = test system: Salmonella typhosa ATCC 9992; assay: as above; assay type: cell-based; details: Salmonella enterica, pH 8, read-out: Minimum Inhibitory Concentration
From the text: as §1, §2, §3

Escherichia coli KY 8315 = assay: as above; assay type: cell-based
From the text: as §1, §2, §3

[9] = test system: Shigella sonnei ATCC 9290; assay: as above; assay type: cell-based; details: ATCC9290, pH 8.0, read-out: Minimum Inhibitory Concentration
From the text: as §1, §2, §3

[10] = test system: Pseudomonas aeruginosa BMH No. 1; assay: as above; assay type: cell-based; details: BMHNO.1, pH 8.0, read-out: Minimum Inhibitory Concentration
From the text: as §1, §2, §3

[11] = stability in alkaline solution; assay type: physicochemical
[12] = Examples 2 and 3, before cellulose column chromatography
[13] = Examples 2 and 3, free base after cellulose column chromatography
[14] = Examples 4 and 5, purified preparate, Casamino acid medium
[15] = Table 5, purified preparate from Micromonospora olivoasterospora MK-70
[16] = Table 5, purified preparate from Micromonospora olivoasterospora MK-80
[17] = Table 5, purified preparate from Micromonospora olivoasterospora Mm 744
[18] = preparate of Example 1, strain CS-26, silica gel chromatography

**Q.** Which LD50 (LD50 for dd-mouse) does the source give for COC1C(O)C(N)C(OC2OC(CN)CCC2N)C(O)C1N(C)C(=O)CN (stereo not shown) [Fortimicin D sulfate] here?
**A.** The LD50 was 159 mg/kg.

**Q.** And the activity ([1]; Examples 8 and 9, sulfate)?
**A.** The activity was “about 650 unit/mg”.

**Q.** What does the source list for COC1C(O)C(N)C(OC2OC(CN)CCC2N)C(O)C1N(C)C(=O)CN (stereo not shown) [Fortimicin D]?
**A.** solubility in organic solvents [2]: poorly soluble; also recorded: insoluble; solubility in ethanol and acetone [2]: slightly soluble; solubility in methanol [2]: soluble; solubility in water [2]: readily soluble; activity [1, 12]: about 840 unit/mg; activity [1, 13]: 970 unit/mg; activity [1, 14]: about 975 unit/mg; activity [1, 15]: 985 unit/mg; activity [1, 16]: 975 unit/mg; activity [1, 17]: 990 unit/mg; activity [1, 18]: about 980 unit/mg; antibacterial activity / spectrum [3]: strong antibacterial activity against a broad range of Gram-positive and Gram-negative bacteria; MIC (Escherichia coli ATCC 26; ATCC26, agar dilution method, pH 8.0, read-out: Minimum Inhibitory Concentration): 0.32 µg/mL (≈ 0.817 µM); MIC (Escherichia coli KY 8327; KY8327, agar dilution method, pH 8.0, strain resistant to kanamycin, gentamicin and tobramycin, read-out: Minimum Inhibitory Concentration): 0.13 µg/mL (≈ 0.332 µM); activity against resistant Escherichia coli (Escherichia coli KY 8327; certain strains of Escherichia coli resistant to kanamycin, gentamicin and tobramycin): effective against certain strains of Escherichia coli which are resistant to kanamycin, gentamicin and tobramycin; MIC [4]: 0.02 µg/mL (≈ 0.0511 µM); MIC [5]: 5 µg/mL (≈ 12.8 µM); MIC ([6]; ATCC10031, agar dilution method, pH 8.0, read-out: Minimum Inhibitory Concentration): 0.08 µg/mL (≈ 0.204 µM); MIC [7]: 0.02 µg/mL (≈ 0.0511 µM); MIC [8]: 0.08 µg/mL (≈ 0.204 µM); MIC (Escherichia coli KY 8315; KY8315, agar dilution method, pH 8.0, read-out: Minimum Inhibitory Concentration): 0.13 µg/mL (≈ 0.332 µM); MIC [9]: 0.3 µg/mL (≈ 0.766 µM); MIC [10]: 5 µg/mL (≈ 12.8 µM)

**Q.** For CNC1C(O)C(OC2OC(CN)CCC2N)C(N)C(O)C1OC (stereo not shown) [Fortimicin KE], which “solubility in organic solvents” value [2] is on record?
**A.** Its value is “poorly soluble; also recorded: insoluble”.

**Q.** What about the “solubility in ethanol and acetone” value [2] of the same molecule?
**A.** The value was “slightly soluble”.

**Q.** And the solubility in methanol [2]?
**A.** The solubility in methanol was “soluble”.

**Q.** And the solubility in water [2]?
**A.** The solubility in water was “readily soluble”.

**Q.** And the activity ([1]; Example 7, free base obtained from Fortimicin D with barium hydroxide)?
**A.** The activity was “about 970 unit/mg”.

**Q.** And the activity [1, 12]?
**A.** Its activity is “about 860 unit/mg”.

**Q.** What about the activity [1, 13] of the same molecule?
**A.** Its activity is 980 unit/mg.

**Q.** And the activity [1, 14]?
**A.** The activity was “about 985 unit/mg”.

**Q.** And the activity [1, 15]?
**A.** The activity was 985 unit/mg.

**Q.** What about the activity [1, 16] of the same molecule?
**A.** Its activity is 980 unit/mg.

**Q.** What about the activity [1, 17] of the same molecule?
**A.** The activity was 990 unit/mg.

**Q.** And the activity [1, 18]?
**A.** The activity was “about 970 unit/mg”.

**Q.** What about the “antibacterial activity / spectrum” value [3] of the same molecule?
**A.** The value was “broad antibacterial spectrum”.

**Q.** And the “stability in an alkaline solution” value [11]?
**A.** The value was “stable in an alkaline solution”.

**Q.** What about the MIC (Escherichia coli ATCC 26; ATCC26, pH 8, read-out: Minimum Inhibitory Concentration) of the same molecule?
**A.** Its MIC is 26.1 µg/mL (≈ 78 µM).

**Q.** And the MIC (Escherichia coli KY 8327; KY8327, pH 8, read-out: Minimum Inhibitory Concentration)?
**A.** Its MIC is 26.1 µg/mL (≈ 78 µM).

**Q.** What about the MIC [4] of the same molecule?
**A.** Its MIC is 1.65 µg/mL (≈ 4.93 µM).

**Q.** And the MIC ([6]; ATCC10031, pH 8, read-out: Minimum Inhibitory Concentration)?
**A.** Its MIC is 26.1 µg/mL (≈ 78 µM).

**Q.** And the MIC [7]?
**A.** The MIC was 104 µg/mL (≈ 312 µM).

**Q.** What about the MIC [8] of the same molecule?
**A.** Its MIC is 13.1 µg/mL (≈ 39.2 µM).

**Q.** What about the MIC (Escherichia coli KY 8315; KY8315, pH 8, read-out: Minimum Inhibitory Concentration) of the same molecule?
**A.** Its MIC is 26.1 µg/mL (≈ 78 µM).

**Q.** What about the MIC [9] of the same molecule?
**A.** Its MIC is 26.1 µg/mL (≈ 78 µM).

**Q.** What about the MIC [10] of the same molecule?
**A.** The MIC was 208 µg/mL (≈ 623 µM).

**Q.** Which activity ([1]; Examples 8 and 9, sulfate) does the source give for CNC1C(O)C(OC2OC(CN)CCC2N)C(N)C(O)C1OC (stereo not shown) [sulfate of Fortimicin KE] here?
**A.** The activity was “about 610 unit/mg”.
